PubChem BioAssay AID330 (DTP/NCI, 2004)
Several values for one entry are separate records, joined by “and”; a condition that tells them apart may be missing. Identical values can stand only once. Inconclusive results and toxic doses are left out. How the source made its calls: active means survival T/C of 150% or more; inactive means T/C below 125% in these data.

Test system: P388 leukemia ip, CD2F1 mice, survival T/C
Assay: NCI In Vivo Anticancer Drug Screen. Data for tumor model P388 Leukemia (intraperitoneal) in CD2F1 (CDF1) mice
Settings: endpoint: median survival time, higher = longer survival
Method in brief: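 Mice carrying the transplanted tumor received test compound or vehicle. Survival was recorded in each group, and the value is the treated-group measurement divided by that of the vehicle-treated control group.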

[1] = dose: 25.0 mg/kg/injection, schedule: Q01DX009 (ip), vehicle: saline with Tween-80
[2] = dose: 50.0 mg/kg/injection, schedule: Q01DX009 (ip), vehicle: saline with Tween-80
[3] = dose: 100.0 mg/kg/injection, schedule: Q01DX009 (ip), vehicle: saline with Tween-80
[4] = dose: 50.0 mg/kg/injection, schedule: Q01DX005 (ip), vehicle: saline
[5] = dose: 100.0 mg/kg/injection, schedule: Q01DX005 (ip), vehicle: saline
[6] = dose: 200.0 mg/kg/injection, schedule: Q01DX005 (ip), vehicle: saline
[7] = dose: 200.0 mg/kg/injection, schedule: Q01DX009 (ip), vehicle: saline with Tween-80
[8] = dose: 400.0 mg/kg/injection, schedule: Q01DX009 (ip), vehicle: saline with Tween-80

Measured: T/C

O=c1ccn(C2OC(CO)C(O)C2O)c(=O)[nH]1 (configuration not stated)
inactive: dose: 25.0 mg/kg/injection, schedule: Q01DX009 (ip), vehicle: water 100 % of control | dose: 32.0 mg/kg/injection, schedule: Q01DX009 (ip), vehicle: Klucel (hydroxypropylcellulose) (HPC) 90 % of control | dose: 32.0 mg/kg/injection, schedule: Q01DX009 (ip), vehicle: saline 86 % of control and 87 % of control | dose: 50.0 mg/kg/injection, schedule: Q01DX009 (ip), vehicle: saline 108 % of control | dose: 50.0 mg/kg/injection, schedule: Q01DX009 (ip), vehicle: water 100 % of control | dose: 64.0 mg/kg/injection, schedule: Q01DX009 (ip), vehicle: Klucel (hydroxypropylcellulose) (HPC) 90 % of control | dose: 100.0 mg/kg/injection, schedule: Q01DX009 (ip), vehicle: saline 94 % of control and 115 % of control | dose: 100.0 mg/kg/injection, schedule: Q01DX009 (ip), vehicle: water 106 % of control | dose: 128.0 mg/kg/injection, schedule: Q01DX009 (ip), vehicle: Klucel (hydroxypropylcellulose) (HPC) 88 % of control | dose: 200.0 mg/kg/injection, schedule: Q01DX009 (ip), vehicle: saline 94 % of control and 112 % of control | dose: 200.0 mg/kg/injection, schedule: Q01DX009 (ip), vehicle: water 106 % of control | dose: 256.0 mg/kg/injection, schedule: Q01DX009 (ip), vehicle: Klucel (hydroxypropylcellulose) (HPC) 98 % of control | dose: 400.0 mg/kg/injection, schedule: Q01DX009 (ip), vehicle: saline 103 % of control and 100 % of control | dose: 400.0 mg/kg/injection, schedule: Q01DX009 (ip), vehicle: water 108 % of control | dose: 512.0 mg/kg/injection, schedule: Q01DX009 (ip), vehicle: Klucel (hydroxypropylcellulose) (HPC) 98 % of control | dose: 800.0 mg/kg/injection, schedule: Q01DX009 (ip), vehicle: saline 98 % of control | dose: 1024.0 mg/kg/injection, schedule: Q01DX009 (ip), vehicle: saline 100 % of control and 89 % of control | dose: 1600.0 mg/kg/injection, schedule: Q01DX009 (ip), vehicle: saline 98 % of control

CCOC(CBr)(OCC)OCC
inactive: [1] 94 % of control | [2] 113 % of control | [3] 113 % of control

O=COCC1(c2ccncc2)OCCO1
inactive: [4] 108 % of control | [5] 107 % of control | [6] 99 % of control

COc1ccc(NC(=O)c2ccc(C(=O)Nc3ccc(OC)cc3)cc2)cc1
inactive: dose: 50.0 mg/kg/injection, schedule: Q01DX001 (ip), vehicle: other 90 % of control | dose: 100.0 mg/kg/injection, schedule: Q01DX001 (ip), vehicle: other 95 % of control | dose: 200.0 mg/kg/injection, schedule: Q01DX001 (ip), vehicle: other 90 % of control | dose: 400.0 mg/kg/injection, schedule: Q01DX001 (ip), vehicle: other 95 % of control

O=C1OCC/C1=C1/NCCNC1=O
inactive: [2] 91 % of control | [3] 116 % of control | [7] 109 % of control

O=C1c2cc([N+](=O)[O-])cc3cc([N+](=O)[O-])cc(c23)C(=O)N1CCNCCNCCNCCN1C(=O)c2cc([N+](=O)[O-])cc3cc([N+](=O)[O-])cc(c23)C1=O
inactive: dose: 12.5 mg/kg/injection, schedule: Q04DX002 (ip), vehicle: saline with Tween-80 112 % of control | dose: 25.0 mg/kg/injection, schedule: Q04DX002 (ip), vehicle: saline with Tween-80 121 % of control | dose: 50.0 mg/kg/injection, schedule: Q04DX002 (ip), vehicle: saline with Tween-80 122 % of control

CN(C)c1ccc(C(c2cc3c(cc2O)OCO3)N2CCCCC2)cc1 (configuration not stated)
inactive: dose: 60.0 mg/kg/injection, schedule: Q01DX005 (ip), vehicle: saline with Tween-80 113 % of control | dose: 120.0 mg/kg/injection, schedule: Q01DX005 (ip), vehicle: saline with Tween-80 121 % of control

Clc1ccc(C(Nc2nncs2)Nc2nncs2)c(Cl)c1
inactive: dose: 100.0 mg/kg/injection, schedule: Q04DX002 (ip), vehicle: Klucel (hydroxypropylcellulose) (HPC) 109 % of control | dose: 200.0 mg/kg/injection, schedule: Q04DX002 (ip), vehicle: Klucel (hydroxypropylcellulose) (HPC) 114 % of control

O=C(Nc1ccc(C(=O)Nc2cc(S(=O)(=O)O)cc3cc(S(=O)(=O)O)cc(O)c23)cc1)c1ccccc1
inactive: [3] 98 % of control | [7] 106 % of control | [8] 103 % of control

O=C1C=C(c2ccccc2)CS1
inactive: dose: 100.0 mg/kg/injection, schedule: Q04DX003 (ip), vehicle: Klucel (hydroxypropylcellulose) (HPC) 101 % of control | dose: 200.0 mg/kg/injection, schedule: Q04DX003 (ip), vehicle: Klucel (hydroxypropylcellulose) (HPC) 101 % of control | dose: 400.0 mg/kg/injection, schedule: Q04DX003 (ip), vehicle: Klucel (hydroxypropylcellulose) (HPC) 101 % of control

NNS(=O)(=O)c1cc(Cl)c(Cl)cc1Cl
inactive: dose: 50.0 mg/kg/injection, schedule: Q01DX009 (ip), vehicle: Klucel (hydroxypropylcellulose) (HPC) 94 % of control | dose: 100.0 mg/kg/injection, schedule: Q01DX009 (ip), vehicle: Klucel (hydroxypropylcellulose) (HPC) 98 % of control | dose: 200.0 mg/kg/injection, schedule: Q01DX009 (ip), vehicle: Klucel (hydroxypropylcellulose) (HPC) 95 % of control

COc1ccc2nc3ccccc3c(NCCCCCCCCNc3c4ccccc4nc4ccc(OC)cc34)c2c1
inactive: dose: 0.63 mg/kg/injection, schedule: Q01DX009 (ip), vehicle: other 113 % of control | dose: 1.25 mg/kg/injection, schedule: Q01DX009 (ip), vehicle: other 109 % of control | dose: 2.5 mg/kg/injection, schedule: Q01DX009 (ip), vehicle: other 104 % of control | dose: 3.75 mg/kg/injection, schedule: Q01DX009 (ip), vehicle: other 109 % of control | dose: 5.0 mg/kg/injection, schedule: Q01DX009 (ip), vehicle: other 113 % of control | dose: 7.5 mg/kg/injection, schedule: Q01DX009 (ip), vehicle: other 120 % of control

N#CC1CC(=O)c2ccccc2C1=O (configuration not stated)
inactive: dose: 50.0 mg/kg/injection, schedule: Q01DX005 (ip), vehicle: Klucel (hydroxypropylcellulose) (HPC) 102 % of control | dose: 100.0 mg/kg/injection, schedule: Q01DX005 (ip), vehicle: Klucel (hydroxypropylcellulose) (HPC) 104 % of control | dose: 200.0 mg/kg/injection, schedule: Q01DX005 (ip), vehicle: Klucel (hydroxypropylcellulose) (HPC) 108 % of control

[O]=[Mo](=[O])=[O]
inactive: dose: 60.0 mg/kg/injection, schedule: Q01DX005 (ip), vehicle: saline 100 % of control | dose: 120.0 mg/kg/injection, schedule: Q01DX005 (ip), vehicle: saline 110 % of control | dose: 240.0 mg/kg/injection, schedule: Q01DX005 (ip), vehicle: saline 115 % of control

N#CC(C#N)=C1CCNc2ccccc21
inactive: [3] 95 % of control | [7] 95 % of control | [8] 95 % of control

CN1C(=O)N(C2CCCCC2)C(=O)C(C)(CN2CCCCC2)C1=O (configuration not stated)
inactive: dose: 12.5 mg/kg/injection, schedule: Q01DX009 (ip), vehicle: saline with Tween-80 102 % of control | [1] 100 % of control | [2] 102 % of control | dose: 50.0 mg/kg/injection, schedule: Q01DX009 (sc), vehicle: saline with Tween-80 100 % of control | dose: 200.0 mg/kg/injection, schedule: Q01DX009 (sc), vehicle: saline with Tween-80 108 % of control

CC(=O)Cc1ncn(-c2cc(C)on2)n1
inactive: dose: 60.0 mg/kg/injection, schedule: Q01DX005 (ip), vehicle: Klucel (hydroxypropylcellulose) (HPC) 111 % of control | dose: 120.0 mg/kg/injection, schedule: Q01DX005 (ip), vehicle: Klucel (hydroxypropylcellulose) (HPC) 113 % of control | dose: 240.0 mg/kg/injection, schedule: Q01DX005 (ip), vehicle: Klucel (hydroxypropylcellulose) (HPC) 100 % of control

NC(Cc1ccccc1)C(=O)Nc1ccncc1 (configuration not stated)
inactive: dose: 12.5 mg/kg/injection, schedule: Q01DX001 (ip), vehicle: saline 105 % of control | dose: 25.0 mg/kg/injection, schedule: Q01DX001 (ip), vehicle: saline 106 % of control | dose: 50.0 mg/kg/injection, schedule: Q01DX001 (ip), vehicle: saline 103 % of control

CC(C)(C)c1cc(C(c2ccccc2)(c2ccccc2)c2ccccc2)cc2c1OP(F)(c1ccccc1)(c1ccccc1)N2
inactive: [2] 91 % of control | [3] 95 % of control | [7] 91 % of control

Nc1ccc(C(=O)Nc2ccc(C(=O)Nc3ccc4cc(S(=O)(=O)O)cc(S(=O)(=O)O)c4c3)cc2)cc1
inactive: [4] 103 % of control | [5] 103 % of control | [6] 103 % of control

CSC(SC)=C1CCCC(=C(SC)SC)C1=O
inactive: dose: 50.0 mg/kg/injection, schedule: Q01DX005 (ip), vehicle: saline with Tween-80 100 % of control | dose: 100.0 mg/kg/injection, schedule: Q01DX005 (ip), vehicle: saline with Tween-80 104 % of control | dose: 200.0 mg/kg/injection, schedule: Q01DX005 (ip), vehicle: saline with Tween-80 99 % of control
